Reference: publication PMC5421785, “Citrullination only infrequently impacts peptide binding to HLA class II MHC” (PLoS ONE, 2017)
Where two headings read alike, the source gives them in different places. Square brackets hold non-standard residues; d marks the D form. Ends that are not written are not given here. Peptide text beside a SMILES is read from it. Cit = NC(=O)NCCC[C@H](N)C(=O)O

How the values were obtained:
HLA-DRB1*01:01 = molecular target: T1, HLA-DRB1*01:01 (Homo sapiens, UniProt P01903+P01911, A100R/D57E/F55L/F60I/F76Y/I96L/L162R/M171V/P40L/Q125E/R42F/V115G/Y59C); test: HLA class II peptide binding, inhibition of radiolabeled peptide binding to purified MHC
T1 construct: EBV transformed homozygous cell lines were used as sources of MHC molecules; endogenous in cells; host or cells: EBV transformed homozygous cell lines

HLA-DRB1*04:01 = molecular target: T2, HLA-DRB1*04:01 (Homo sapiens, UniProt P01903+P01911, A100K/A169T/F76Y/I96L/K127E/L162R/M171V/N62H/P40V/Q125Y/R42H/S133A/S149N/S66Y/V115G/V209L/W38E); test: as above
T2 construct: EBV transformed homozygous cell lines were used as sources of MHC molecules; endogenous in cells; host or cells: EBV transformed homozygous cell lines

[1] = citrullinated 15-mer (X), purified MHC, inhibition of radiolabeled peptide binding, dash = IC50 >40,000 nM, read-out: DRB1*01:01 binding capacity, Cit peptide (IC50 nM)
[2] = citrullinated 15-mer (X), purified MHC, inhibition of radiolabeled peptide binding, dash = IC50 >40,000 nM, read-out: DRB1*04:01 binding capacity, Cit peptide (IC50 nM)
[3] = citrullinated 15-mer peptide (X = citrulline), purified HLA-DRB1*01:01, read-out: DRB1*01:01 binding capacity, Cit peptide (IC50 nM)
[4] = citrullinated 15-mer peptide (X = citrulline), purified HLA-DRB1*04:01, read-out: DRB1*04:01 binding capacity, Cit peptide (IC50 nM)
[5] = citrullinated peptide as listed (X at Cit position), read-out: DRB1*01:01 binding capacity Cit peptide (IC50 nM)
[6] = citrullinated peptide as listed (X at Cit position), read-out: DRB1*04:01 binding capacity Cit peptide (IC50 nM)

Compound	IC50 (HLA-DRB1*01:01; [1]) [nM]	IC50 (HLA-DRB1*04:01; [2]) [nM]	IC50 (HLA-DRB1*01:01; [3]) [nM]	IC50 (HLA-DRB1*04:01; [4]) [nM]	also measured
CC(C)C[C@H](NC(=O)[C@H](C)NC(=O)[C@H](CO)NC(=O)CNC(=O)[C@H](CC(C)C)NC(=O)[C@H](CO)NC(=O)[C@H](Cc1ccc(O)cc1)NC(=O)[C@@H](NC(=O)[C@@H](N)CCCNC(N)=O)[C@@H](C)O)C(=O)N[C@@H](CCCNC(=N)N)C(=O)N1CCC[C@H]1C(=O)N[C@@H](CO)C(=O)N[C@H](C(=O)N[C@@H](CO)C(=O)N[C@@H](CCCNC(=N)N)C(=O)O)[C@@H](C)O [XTYSLGSALRPSTSR] (H-[Cit]TYSLGSALRPSTSR-OH)	53	4770			
CC[C@H](C)[C@H](NC(=O)[C@@H](NC(=O)[C@H](CC(=O)O)NC(=O)[C@H](CCC(N)=O)NC(=O)[C@H](Cc1ccc(O)cc1)NC(=O)[C@H](CC(N)=O)NC(=O)[C@H](C)NC(=O)[C@H](C)NC(=O)[C@H](CCC(=O)O)NC(=O)[C@@H](NC(=O)[C@H](C)NC(=O)[C@@H](N)Cc1ccccc1)C(C)C)[C@@H](C)O)C(=O)NCC(=O)N[C@@H](CCCNC(N)=O)C(=O)N[C@@H](CC(C)C)C(=O)O [FAVEAANYQDTIGXL] (H-FAVEAANYQDTIG[Cit]L-OH)			642	768	
CC[C@H](C)[C@H](NC(=O)[C@@H](NC(=O)[C@H](CCC(N)=O)NC(=O)CNC(=O)[C@H](CC(=O)O)NC(=O)[C@H](CCCNC(N)=O)NC(=O)[C@@H](NC(=O)[C@H](CCC(=O)O)NC(=O)[C@@H](NC(=O)[C@@H](NC(=O)[C@H](CCCCN)NC(=O)[C@@H](NC(=O)[C@H](CC(C)C)NC(=O)[C@H](CC(C)C)NC(=O)[C@@H](N)[C@@H](C)O)[C@@H](C)CC)[C@@H](C)O)C(C)C)[C@@H](C)O)C(C)C)C(=O)O [TLLIKTVETXDGQVI] (H-TLLIKTVET[Cit]DGQVI-OH)			2120	2260	
CSCC[C@H](NC(=O)[C@H](CCCNC(=N)N)NC(=O)[C@H](CCCNC(=N)N)NC(=O)[C@H](Cc1ccc(O)cc1)NC(=O)[C@H](CO)NC(=O)[C@H](CO)NC(=O)[C@H](CO)NC(=O)[C@H](CO)NC(=O)[C@@H](NC(=O)[C@H](CO)NC(=O)[C@H](CCCNC(N)=O)NC(=O)[C@@H](NC(=O)[C@H](CO)NC(=O)[C@@H](N)CCSC)[C@@H](C)O)C(C)C)C(=O)N[C@@H](Cc1ccccc1)C(=O)O [MSTXSVSSSSYRRMF] (H-MST[Cit]SVSSSSYRRMF-OH)	573	1080			
CC[C@H](C)[C@H](NC(=O)[C@H](CCC(N)=O)NC(=O)[C@H](CC(N)=O)NC(=O)[C@H](CC(N)=O)NC(=O)[C@H](CC(C)C)NC(=O)[C@@H](N)CO)C(=O)N[C@@H](CCC(=O)O)C(=O)N[C@@H](CO)C(=O)N[C@H](C(=O)N[C@@H](CCCNC(N)=O)C(=O)N[C@@H](CO)C(=O)N1CCC[C@H]1C(=O)N[C@@H](CCC(=O)O)C(=O)NCC(=O)N[C@@H](CO)C(=O)O)[C@@H](C)CC [SLNNQIESIXSPEGS] (H-SLNNQIESI[Cit]SPEGS-OH)					IC50 (HLA-DRB1*01:01; [5]): 6.5 nM; IC50 (HLA-DRB1*04:01; [6]): 18 nM
CC[C@H](C)[C@H](NC(=O)CNC(=O)[C@@H]1CCCN1)C(=O)N[C@@H](CC(=O)O)C(=O)N[C@@H](CCSC)C(=O)N[C@@H](CO)C(=O)N[C@@H](C)C(=O)N[C@@H](Cc1ccccc1)C(=O)N[C@@H](C)C(=O)NCC(=O)N[C@@H](CC(C)C)C(=O)NCC(=O)N1CCC[C@H]1C(=O)N[C@@H](CCCNC(N)=O)C(=O)N[C@@H](CCC(=O)O)C(=O)O [PGIDMSAFAGLGPXE] (H-PGIDMSAFAGLGP[Cit]E-OH)			122	12900	
TNEKVELQELNDRFA [Vimentin 101 WT]					IC50 (HLA-DRB1*01:01; read-out: DRB1*01:01 binding capacity, WT peptide (IC50 nM)): 5150 nM; IC50 (HLA-DRB1*04:01; read-out: DRB1*04:01 binding capacity, WT peptide (IC50 nM)): 17900 nM
CC(C)C[C@H](NC(=O)[C@H](CCCNC(=N)N)NC(=O)[C@@H](NC(=O)[C@H](C)NC(=O)[C@H](CO)NC(=O)[C@H](CO)NC(=O)[C@H](CCCNC(N)=O)NC(=O)[C@@H](NC(=O)[C@H](C)NC(=O)[C@@H](N)Cc1ccc(O)cc1)[C@@H](C)O)C(C)C)C(=O)N[C@@H](CCCNC(=N)N)C(=O)N[C@@H](CO)C(=O)N[C@@H](CO)C(=O)N[C@H](C(=O)N1CCC[C@H]1C(=O)O)C(C)C [YATXSSAVRLRSSVP] (H-YAT[Cit]SSAVRLRSSVP-OH)	12	3720			
CC(C)C[C@H](NC(=O)CNC(=O)[C@H](CCCNC(N)=O)NC(=O)[C@H](CCC(=O)O)NC(=O)CNC(=O)[C@@H]1CCCN1C(=O)[C@H](CCC(=O)O)NC(=O)CNC(=O)[C@H](C)N)C(=O)N[C@@H](CCCCN)C(=O)NCC(=O)N[C@@H](Cc1c[nH]cn1)C(=O)N[C@@H](CCCNC(=N)N)C(=O)NCC(=O)N[C@@H](Cc1ccccc1)C(=O)O [AGEPGEXGLKGHRGF] (H-AGEPGE[Cit]GLKGHRGF-OH)			783	> 40000	
CSCC[C@H](NC(=O)[C@H](Cc1ccc(O)cc1)NC(=O)[C@H](CCC(N)=O)NC(=O)[C@@H](N)CC(C)C)C(=O)N[C@@H](CCCNC(=N)N)C(=O)N[C@@H](C)C(=O)N[C@@H](CC(=O)O)C(=O)N[C@@H](CCC(N)=O)C(=O)N[C@@H](C)C(=O)N[C@@H](C)C(=O)NCC(=O)NCC(=O)N[C@@H](CC(C)C)C(=O)N[C@@H](CCCNC(N)=O)C(=O)N[C@@H](CCC(N)=O)C(=O)O [LQYMRADQAAGGLXQ] (H-LQYMRADQAAGGL[Cit]Q-OH)					IC50 (HLA-DRB1*01:01; [5]): 64 nM; IC50 (HLA-DRB1*04:01; [6]): 83 nM
CC(C)C[C@H](NC(=O)[C@H](C)NC(=O)[C@H](CO)NC(=O)CNC(=O)[C@H](CC(C)C)NC(=O)[C@H](CO)NC(=O)[C@H](Cc1ccc(O)cc1)NC(=O)[C@@H](NC(=O)[C@@H](N)CCCNC(=N)N)[C@@H](C)O)C(=O)N[C@@H](CCCNC(N)=O)C(=O)N1CCC[C@H]1C(=O)N[C@@H](CO)C(=O)N[C@H](C(=O)N[C@@H](CO)C(=O)N[C@@H](CCCNC(=N)N)C(=O)O)[C@@H](C)O [RTYSLGSALXPSTSR] (H-RTYSLGSAL[Cit]PSTSR-OH)	14	1100			
CC[C@H](C)[C@H](N)C(=O)N[C@@H](CC(=O)O)C(=O)N[C@H](C(=O)N[C@@H](CC(=O)O)C(=O)N[C@H](C(=O)N[C@@H](CO)C(=O)N[C@@H](CCCCN)C(=O)N1CCC[C@H]1C(=O)N[C@@H](CC(=O)O)C(=O)N[C@@H](CC(C)C)C(=O)N[C@H](C(=O)N[C@@H](C)C(=O)N[C@@H](C)C(=O)N[C@@H](CC(C)C)C(=O)N[C@@H](CCCNC(N)=O)C(=O)O)[C@@H](C)O)C(C)C)C(C)C [IDVDVSKPDLTAALX] (H-IDVDVSKPDLTAAL[Cit]-OH)	935	23500			
N=C(N)NCCC[C@H](NC(=O)[C@H](CCC(=O)O)NC(=O)CNC(=O)[C@H](CCCNC(N)=O)NC(=O)[C@@H]1CCCN1C(=O)CN)C(=O)NCC(=O)N[C@@H](Cc1ccccc1)C(=O)N1CCC[C@H]1C(=O)NCC(=O)N[C@@H](CCC(=O)O)C(=O)N[C@@H](CCCNC(=N)N)C(=O)NCC(=O)N[C@@H](CO)C(=O)N1CCC[C@H]1C(=O)O [GPXGERGFPGERGSP] (H-GP[Cit]GERGFPGERGSP-OH)			23400	> 40000	
CC(C)C[C@H](NC(=O)CNC(=O)[C@H](C)NC(=O)[C@H](Cc1ccccc1)NC(=O)[C@H](C)NC(=O)[C@@H](N)CO)C(=O)NCC(=O)N1CCC[C@H]1C(=O)N[C@@H](CCCNC(N)=O)C(=O)N[C@@H](CCC(=O)O)C(=O)N[C@@H](CCCCN)C(=O)NCC(=O)N1CCC[C@H]1C(=O)N[C@@H](CC(=O)O)C(=O)N1CCC[C@H]1C(=O)O [SAFAGLGPXEKGPDP] (H-SAFAGLGP[Cit]EKGPDP-OH)			35	6400	
CC(C)C[C@H](NC(=O)CNC(=O)[C@@H]1CCCN1C(=O)[C@H](C)NC(=O)CNC(=O)[C@@H]1CCCN1C(=O)[C@H](CC(C)C)NC(=O)CN)C(=O)N[C@@H](CCCNC(N)=O)C(=O)NCC(=O)N[C@@H](CC(C)C)C(=O)N1CCC[C@H]1C(=O)NCC(=O)N[C@@H](CCCCN)C(=O)N[C@@H](CC(=O)O)C(=O)O [GLPGAPGLXGLPGKD] (H-GLPGAPGL[Cit]GLPGKD-OH)			514	> 40000	
CC[C@H](C)[C@H](NC(=O)[C@H](CC(=O)O)NC(=O)[C@H](CCC(=O)O)NC(=O)[C@H](C)NC(=O)[C@H](CC(C)C)NC(=O)[C@H](CC(N)=O)NC(=O)[C@H](CC(=O)O)NC(=O)[C@H](CCCNC(N)=O)NC(=O)[C@H](CCC(=O)O)NC(=O)[C@@H](NC(=O)[C@H](CCC(=O)O)NC(=O)[C@@H](N)C(C)C)C(C)C)C(=O)N[C@@H](CCSC)C(=O)N[C@@H](CCCNC(=N)N)C(=O)N[C@@H](CC(C)C)C(=O)O [VEVEXDNLAEDIMRL] (H-VEVE[Cit]DNLAEDIMRL-OH)	27100	16300			
CC[C@H](C)[C@H](NC(=O)[C@@H](N)CCC(=O)O)C(=O)N[C@@H](C)C(=O)N[C@H](C(=O)N[C@@H](Cc1ccc(O)cc1)C(=O)N[C@@H](CCCNC(=N)N)C(=O)N[C@@H](CCCCN)C(=O)N[C@@H](CC(C)C)C(=O)N[C@@H](CC(C)C)C(=O)N[C@@H](CCC(=O)O)C(=O)NCC(=O)N[C@@H](CCC(=O)O)C(=O)N[C@@H](CCC(=O)O)C(=O)N[C@@H](CO)C(=O)N[C@@H](CCCNC(N)=O)C(=O)O)[C@@H](C)O [EIATYRKLLEGEESX] (H-EIATYRKLLEGEES[Cit]-OH)			470	4300	
